Patent US12157730B2, “Heteroaryl derivative, method for producing same, and pharmaceutical composition comprising same as effective component” (VORONOI INC., priority 2019, dated 2024)

Target: T1, Ba/F3 cell EGFR Exon20 ins NPH (Homo sapiens, UniProt P00533, INS773NPH)
T1 construct: expressed in transfected cells; host or cells: Ba/F3
Assay: Ba/F3 cell proliferation suppression, EGFR Exon20 ins NPH
Format: cell-based
Settings: GI50 class; Ba/F3 cell line with NPH inserted at Exon20 of EGFR; 72 hours
How it was run: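 Seed 3000–5000 cells/well; after 24 h add compound (12 conc., 0.3 nM–50 um final); incubate 72 h; add CellTiter-Glo, 10 min room temperature; read luminescence; GI50 from % growth vs control, triplicate.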

| Structure (SMILES) | Ba/F3 (NPH) Activity |
| --- | --- |
| C=CC(=O)Nc1cc(Nc2cc(N3OCC[C@@H]3c3ccc(F)cc3F)ncn2)c(OC)cc1N1CCC(N2CCN(C)CC2)CC1 [compound 352, N-(5-((6-((R)-3-(2,4-difluorophenyl)isoxazolidine-2-yl)pyrimidine-4-yl)amino)-4-methoxy-2-(4-(4-methylpiperazine-1-yl)piperidine-1-yl)phenyl) acrylamide] | A (GI50 < 50 nM) |
| C=CCN1CCN(C2CCN(c3cc(OC)c(Nc4cc(N5OCC[C@@H]5c5cccc(F)c5F)ncn4)cc3NC(=O)C=C)CC2)CC1 [Example 209, N-(2-(4-(4-allylpiperazine-1-yl)piperidine-1-yl)-5-((6-((R)-3-(2,3-difluorophenyl)isoxazolidine-2-yl)pyrimidine-4-yl)amino)-4-methoxyphenyl) acrylamide] | A (GI50 < 50 nM) |
| C=CC(=O)Nc1cc(Nc2cc(N3OCC[C@@H]3c3cccc(F)c3Cl)ncn2)c(OC)cc1N1CCC(N2CCN(C3CC3)CC2)CC1 [Example 164, N-(5-((6-((R)-3-(2-chloro-3-fluorophenyl)isoxazolidine-2-yl)pyrimidine-4-yl)amino)-2-(4-(4-cyclopropylpiperazine-1-yl)piperidine-1-yl)-4-methoxyphenyl) acrylamide] | A (GI50 < 50 nM) |
| C=CC(=O)Nc1cc(Nc2cc(N3OCC[C@@H]3c3ccc4ccccc4c3)ncn2)c(OC)cc1N(C)CCN(C)C [compound 511, N-(2-((2-(dimethylamino)ethyl)(methyl)amino)-4-methoxy-5-((6-((R)-3-(naphthalene-2-yl)isoxazolidine-2-yl)pyrimidine-4-yl)amino)phenyl)acrylamide] | A (GI50 < 50 nM) |
| C=CC(=O)Nc1cc(Nc2cc(N3OCC[C@@H]3c3c(F)ccc(F)c3F)ncn2)c(OC)cc1N1CC[C@@H](N(C)C)C1 [compound 630, N-(2-((R)-3-(dimethylamino)pyrolidine-1-yl)-4-methoxy-5-((6-((R)-3-(2,3,6-trifluorophenyl)isoxazolidine-2-yl)pyrimidine-4-yl)amino)phenyl)acrylamide] | B (50 nM ≤ GI50 < 500 nM) |
| C=CC(=O)Nc1cc(Nc2cc(N3OCC[C@@H]3c3ccc(F)cc3)ncn2)c(OC)cc1N(C)CCN(C)C [Example 39, N-(2-((2-(dimethylamino)ethyl)(methyl)amino)-5-((6-((R)-3-(4-fluorophenyl)isoxazolidine-2-yl)pyrimidine-4-yl)amino)-4-methoxyphenyl) acrylamide] | A (GI50 < 50 nM) |
| C=CC(=O)Nc1cc(Nc2cc(N3OCC[C@@H]3c3ccc4ccccc4c3)ncn2)c(OC)cc1N1CCC(N2CCOCC2)CC1 [compound 555, N-(4-methoxy-2-(4-morpholinopiperidine-1-yl)-5-((6-((R)-3-(naphthalene-2-yl)isoxazolidine-2-yl)pyrimidine-4-yl)amino)phenyl)acrylamide] | B (50 nM ≤ GI50 < 500 nM) |
| C=CC(=O)Nc1cc(Nc2cc(N3OCC[C@@H]3c3ccc(Cl)c(F)c3)ncn2)c(OC)cc1N1CC[C@H](N2CCOCC2)C1 [compound 365, N-(5-((6-((R)-3-(4-chloro-3-fluorophenyl)isoxazolidine-2-yl)pyrimidine-4-yl)amino)-4-methoxy-2-((S)-3-morpholinopyrolidine-1-yl)phenyl) acrylamide] | B (50 nM ≤ GI50 < 500 nM) |
| C=CC(=O)Nc1cc(Nc2cc(N3OCC[C@@H]3c3cc(F)cc(F)c3)ncn2)c(C)cc1N1CCC(N2CCN(C3CC3)CC2)CC1 [compound 534, N-(2-(4-(4-cyclopropylpiperazine-1-yl)piperidine-1-yl)-5-((6-((R)-3-(3,5-difluorophenyl)isoxazolidine-2-yl)pyrimidine-4-yl)amino)-4-methylphenyl) acrylamide] | A (GI50 < 50 nM) |
| C=CC(=O)Nc1cc(Nc2cc(N3OCC[C@@H]3c3cccc(C)c3F)ncn2)c(OC)cc1N1CCC(N(C)C)CC1 [compound 864, N-(2-(4-(dimethylamino)piperidine-1-yl)-5-((6-((R)-3-(2-fluoro-3-methylphenyl)isoxazolidine-2-yl)pyrimidine-4-yl)amino)-4-methoxyphenyl) acrylamide] | A (GI50 < 50 nM) |
| C=CC(=O)Nc1cc(Nc2cc(N3OCC[C@@H]3c3cc(F)ccc3F)ncn2)c(OC)cc1N1CCC(N(C)C)CC1 [compound 819, N-(5-((6-((R)-3-(2,5-difluorophenyl)isoxazolidine-2-yl)pyrimidine-4-yl)amino)-2-(4-(dimethylamino)piperidine-1-yl)-4-methoxyphenyl) acrylamide] | A (GI50 < 50 nM) |
| C=CC(=O)Nc1cc(Nc2cc(N3OCC[C@@H]3c3ccc(Cl)c(F)c3)ncn2)c(OC)cc1N1CCN(C(C)=O)CC1 [compound 363, N-(2-(4-acetylpiperazine-1-yl)-5-((6-((R)-3-(4-chloro-3-fluorophenyl)isoxazolidine-2-yl)pyrimidine-4-yl)amino)-4-methoxyphenyl) acrylamide] | A (GI50 < 50 nM) |
| C=CC(=O)Nc1cc(Nc2cc(N3OCC[C@@H]3Cc3cc(F)cc(F)c3)ncn2)c(OC)cc1N1CCC(N2CCN(C3CC3)CC2)CC1 [compound 1033, N-(2-(4-(4-cyclopropylpiperazine-1-yl)piperidine-1-yl)-5-((6-((S)-3-(3,5-difluorobenzyl)isoxazolidine-2-yl)pyrimidine-4-yl)amino)-4-methoxyphenyl) acrylamide] | A (GI50 < 50 nM) |
| C=CC(=O)Nc1cc(Nc2cc(N3OCC[C@@H]3c3ccc(F)c(Cl)c3)ncn2)c(OC)cc1N1CCC(N2C[C@@H]3C[C@H]2CO3)CC1 [compound 716, N-(2-(4-((1S,4S)-2-oxa-5-azabicyclo[2.2.1]heptane-5-yl)piperidine-1-yl)-5-((6-((R)-3-(3-chloro-4-fluorophenyl)isoxazolidine-2-yl)pyrimidine-4-yl)amino)-4-methoxyphenyl) acrylamide] | A (GI50 < 50 nM) |
| C=CC(=O)Nc1cc(Nc2cc(N3OCC[C@@H]3c3cccc(C#N)c3)ncn2)c(OC)cc1N1CCC(N2CCN(C)CC2)CC1 [compound 398, N-(5-((6-((R)-3-(3-cyanophenyl)isoxazolidine-2-yl)pyrimidine-4-yl)amino)-4-methoxy-2-(4-(4-methylpiperazine-1-yl)piperidine-1-yl)phenyl) acrylamide] | A (GI50 < 50 nM) |
| C=CC(=O)Nc1cc(Nc2cc(N3OCC[C@@H]3c3cccc(Cl)c3F)ncn2)c(OC)cc1N1CCC(N2C[C@H](C)N(C3CC3)C[C@@H]2C)CC1 [Example 128, N-(5-((6-((R)-3-(3-chloro-2-fluorophenyl)isoxazolidine-2-yl)pyrimidine-4-yl)amino)-2-(4-((2S,5S)-4-cyclopropyl-2,5-dimethylpiperazine-1-yl)piperidine-1-yl)-4-methoxyphenyl) acrylamide] | A (GI50 < 50 nM) |
| C=CC(=O)Nc1cc(Nc2cc(N3OCC[C@@H]3c3ccc(Cl)c(Cl)c3)ncn2)c(OC)cc1N1CCC(N2CCN(C3CC3)CC2)CC1 [compound 932, N-(2-(4-(4-cyclopropylpiperazine-1-yl)piperidine-1-yl)-5-((6-((R)-3-(3,4-dichlorophenyl)isoxazolidine-2-yl)pyrimidine-4-yl)amino)-4-methoxyphenyl) acrylamide] | B (50 nM ≤ GI50 < 500 nM) |
| C=CC(=O)Nc1cc(Nc2cc(N3OCC[C@@H]3c3cccc(F)c3F)ncn2)c(OC)cc1N1CCC(N2CCN(CC)CC2)CC1 [compound 922] | A (GI50 < 50 nM) |
| C=CC(=O)Nc1cc(Nc2cc(N3OCC[C@@H]3c3cc(F)cc(Cl)c3)ncn2)c(OC)cc1N1CCC(N2CCN(C(C)C)CC2)CC1 [compound 593, N-(5-((6-((R)-3-(3-chloro-5-fluorophenyl)isoxazolidine-2-yl)pyrimidine-4-yl)amino)-2-(4-(4-isopropylpiperazine-1-yl)piperidine-1-yl)-4-methoxyphenyl) acrylamide] | A (GI50 < 50 nM) |
| C=CC(=O)Nc1cc(Nc2cc(N3OCC[C@@H]3c3ccc(F)cc3F)ncn2)c(OC)cc1N1CCC(N(C)CCN(C)C)CC1 [compound 422, N-(5-((6-((R)-3-(2,4-difluorophenyl)isoxazolidine-2-yl)pyrimidine-4-yl)amino)-2-(4-((2-(dimethylamino)ethyl)(methyl)amino)piperidine-1-yl)-4-methoxyphenyl) acrylamide] | A (GI50 < 50 nM) |
| C=CC(=O)Nc1cc(Nc2cc(N3OCC[C@H]3c3c(F)cccc3F)ncn2)c(OC)cc1N1CCC(N2CCC(N(C)C)CC2)CC1 [compound 369, N-(5-((6-((S)-3-(2,6-difluorophenyl)isoxazolidine-2-yl)pyrimidine-4-yl)amino)-2-(4-(dimethylamino)-[1,4'-bipiperidine]-1'-yl)-4-methoxyphenyl) acrylamide] | C (500 nM ≤ GI50 < 5000 nM) |
| C=CC(=O)Nc1cc(Nc2cc(N3OCC[C@@H]3c3ccc(F)cc3)ncn2)c(OC)cc1N1CCC(N2C[C@H]3C[C@@H]2CO3)CC1 [compound 813, N-(2-(4-((1R,4R)-2-oxa-5-azabicyclo [2.2.1]heptane-5-yl)piperidine-1-yl)-5-((6-((R)-3-(4-fluorophenyl)isoxazolidine-2-yl)pyrimidine-4-yl)amino)-4-methoxyphenyl) acrylamide] | A (GI50 < 50 nM) |
| C#Cc1cccc([C@H]2CCON2c2cc(Nc3cc(NC(=O)C=C)c(N4CCC(N5CCOCC5)CC4)cc3OC)ncn2)c1 [compound 650, N-(5-((6-((R)-3-(3-ethynylphenyl)isoxazolidine-2-yl)pyrimidine-4-yl)amino)-4-methoxy-2-(4-morpholinopiperidine-1-yl)phenyl)acrylamide] | A (GI50 < 50 nM) |
| C=CC(=O)Nc1cc(Nc2cc(N3OCC[C@@H]3c3ccc(F)c(Cl)c3)ncn2)c(OC)cc1N1CCC(N2CC[C@@H](N(C)C)C2)CC1 [compound 769, N-(5-((6-((R)-3-(3-chloro-4-fluorophenyl)isoxazolidine-2-yl)pyrimidine-4-yl)amino)-2-(4-((R)-3-(dimethylamino)pyrolidine-1-yl)piperidine-1-yl)-4-methoxyphenyl) acrylamide] | A (GI50 < 50 nM) |
